Assay results published in US20180282323A1, “Mesoionic imidazole derivatives as insecticides” (BAYER CROPSCIENCE AKTIENGESELLSCHAFT, priority 2015, published 2018).

Key:
[1] = tested on: Myzus persicae; experiment: Myzus persicae oral test; format: in vivo; conditions: application rate 20 ppm, oral uptake through parafilm, after 5 days
Method in brief: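 Compound dissolved in acetone, diluted with water, then mixed into IPL41 insect medium with sugar in microtitre plates under parafilm. Mixed-population green peach aphids fed through the membrane; % mortality scored after 5 days (100% = all killed).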

[2] = log P by HPLC on reversed-phase column (EEC directive 79/831 Annex V.A8); format: physicochemical; conditions: for log p: HPLC on reversed-phase column (footnote a); for log p a): HPLC on reversed-phase column
Method in brief: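 Determined per EEC directive 79/831 Annex V.A8 by HPLC on a reversed-phase C18 column at 43° C.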

[3] = tested on: Myzus persicae; experiment: Myzus persicae spray test (bell pepper plants); format: in vivo; conditions: application rate 100 ppm, after 6 days
Protocol: Myzus persicae—Spray Test Solvent: 14 parts by weight of dimethylformamide Emulsifier: alkylaryl polyglycol ether
(§1) To produce a suitable active ingredient formulation, 1 part by weight of active ingredient is dissolved with the stated parts by weight of solvent and made up with water containing an emulsifier concentration of 1000 ppm until the desired concentration is attained. To produce further test concentrations, the formulation is diluted with emulsifier-containing water. If the addition of ammonium salts or/and penetrants is required, these are each added in a concentration of 1000 ppm to the formulation solution.
Bell pepper plants (Capsicum annuum) severely infested with the green peach aphid (Myzus persicae) are treated by spraying with the active ingredient formulation in the desired concentration.
After 6 days, the kill in % is determined. 100% means that all of the aphids have been killed; 0% means that none of the aphids have been killed.

[4] = tested on: Myzus persicae; experiment: Myzus persicae spray test (Chinese cabbage leaf discs); format: in vivo; conditions: application rate 500 g/ha, after 6 days
Protocol: Myzus persicae—Spray Test Solvent: 78 parts by weight of acetone • • 1.5 parts by weight of dimethylformamide Emulsifier: alkylaryl polyglycol ether
as §1, with “water.” for “water. If the addition of ammonium salts or/and penetrants is required, these are each added in a concentration of 1000 ppm to the formulation solution.”
Discs of Chinese cabbage leaves (Brassica pekinensis) infested by all stages of the green peach aphid (Myzus persicae) are sprayed with an active ingredient formulation of the desired concentration.
After 6 days, the efficacy in % is determined. 100% means that all the aphids have been killed; 0% means that no aphids have been killed.

[5] = tested on: Diabrotica balteata; experiment: Diabrotica balteata spray test; format: in vivo; conditions: application rate 160 μg/well, wheat grains with beetle larvae, after 7 days
Protocol: Diabrotica balteata—Spray Test Solvent: 78 parts by weight of acetone • • 1.5 parts by weight of dimethylformamide Emulsifier: alkylaryl polyglycol ether
as §1, with “water.” for “water. If the addition of ammonium salts or/and penetrants is required, these are each added in a concentration of 1000 ppm to the formulation solution.”
Pre-swollen wheat grains (Triticum aestivum) are incubated in a multiwell plate filled with agar and a little water for one day (5 seed grains per cavity). The germinated wheat grains are sprayed with an active ingredient formulation of the desired concentration. Subsequently, each cavity is infected with 10-20 beetle larvae of Diabrotica balteata.
After 7 days, the efficacy in % is determined. 100% means that all wheat plants have grown as in the untreated, uninfected control; 0% means that no wheat plant has grown.

[6] = tested on: Lucilia cuprina; experiment: Lucilia cuprina test; format: in vivo; conditions: application rate 100 ppm, L1 larvae, after 2 days
Protocol: Lucilia cuprina Test Solvent: dimethyl sulphoxide
To produce a suitable active ingredient formulation, 10 mg of active ingredient are mixed with 0.5 ml of dimethyl sulphoxide, and the concentrate is diluted with water to the desired concentration.
About 20 L1 larvae of the Australian sheep blowfly (Lucilia cuprina) are transferred into a test vessel containing minced horsemeat and the active ingredient formulation of the desired concentration.
After 2 days, the kill in % is determined. 100% means that all the larvae have been killed; 0% means that no larvae have been killed.

log p a) [2]	SMILES	efficacy [1] [%]	log p [2]	efficacy (kill in %) [3] [%]	efficacy [4] [%]	efficacy [5] [%]	efficacy (kill in %) [6] [%]
2.43	O=C(Nc1c(F)cccc1F)c1c([O-])n(Cc2cnc(Cl)s2)c2cccc[n+]12 [Example I-1-231]	100	–	99	–	100	–
1.68	O=C(Nc1ncccc1F)c1c([O-])n(Cc2cnc(Cl)s2)c2cccc[n+]12 [Example I-1-284]	100	–	–	90	80	–

Further lines, the compound ahead of its results:

SMILES	log p a) [2]	efficacy [1] [%]	log p [2]	efficacy (kill in %) [3] [%]	efficacy [4] [%]	efficacy [5] [%]	efficacy (kill in %) [6] [%]
COc1cnn(CC(=O)c2c([O-])n(Cc3cnc(Cl)s3)c3cccc[n+]23)c1 [Example I-1-013]	–	100	1.58	85	–	–	–
CC(C)SCC(=O)c1c([O-])n(Cc2cnc(Cl)s2)c2cccc[n+]12 [Example I-1-027]	–	100	2.27	–	100	100	90
CSc1cnn(CC(=O)c2c([O-])n(Cc3cnc(Cl)s3)c3cccc[n+]23)c1 [Example I-1-044]	–	100	1.97	80	–	–	–
O=C(Cn1cc(C(F)(F)F)cn1)c1c([O-])n(Cc2cnc(Cl)s2)c2cccc[n+]12 [Example I-1-045]	–	100	2.37	95	–	80	–
O=C(Cn1ccnc1Cl)c1c([O-])n(Cc2cnc(Cl)s2)c2cccc[n+]12 [Example I-1-046]	–	100	1.44	95	–	–	–
CC(=O)N(CC(=O)c1c([O-])n(Cc2cnc(Cl)s2)c2cccc[n+]12)C1CC1 [Example I-1-062]	–	100	1.58	95	–	–	–
COCCOCC(=O)c1c([O-])n(Cc2cnc(Cl)s2)c2cccc[n+]12 [Example I-1-087]	–	100	1.38	–	100	100	100
O=C(CO)c1c([O-])n(Cc2cnc(Cl)s2)c2cccc[n+]12 [Example I-1-089]	–	100	1.14	–	–	–	90
CCOCC(=O)c1c([O-])n(Cc2ccc(Cl)nc2)c2ccc(C)c[n+]12 [Example I-1-113]	–	100	1.66	95	–	–	–
CCOCC(=O)c1c([O-])n(Cc2ccc(Cl)nc2)c2cccc(C)[n+]12 [Example I-1-114]	–	100	1.47	85	–	–	–
COCC(=O)c1c([O-])n(Cc2cnc(Cl)c(Cl)c2)c2cccc[n+]12 [Example I-1-179]	–	100	1.66	95	–	–	–
COCC(=O)c1c([O-])n(Cc2ccc(Cl)nc2)c2c(C)ccc[n+]12 [Example I-1-193]	–	100	1.38	100	–	–	–
O=C(Nc1ccc(F)cc1)c1c([O-])n(Cc2cnc(Cl)s2)c2cccc[n+]12 [Example I-1-227]	2.82	100	–	99	–	100	–
Cc1ccc[n+]2c(C(=O)NC3(C#N)CC3)c([O-])n(Cc3ccc(Cl)nc3)c12 [Example I-1-252]	1.78	90	–	95	–	–	–
O=C(Nc1c(Cl)cccc1Cl)c1c([O-])n(Cc2cnc(Cl)s2)c2cccc[n+]12 [Example I-1-282]	2.8	100	–	–	90	100	–
O=C(Nc1c(F)cccc1Cl)c1c([O-])n(Cc2cnc(Cl)s2)c2cccc[n+]12 [Example I-1-283]	2.57	100	–	–	100	100	–
Cc1ccc[n+]2c(C(=O)COC(C)C)c([O-])n(Cc3cnc(Cl)s3)c12 [Example I-1-292]	1.97	100	–	–	90	100	–
